Data from patent publication US20250122191A1, “COMPOUNDS AS BCL-2 INHIBITORS” (Fochon Biosciences, Ltd, priority 2021, published 2025).

Experiments:
RS4;11-BCL-2 F104L cells = assay: Cell proliferation assay (MTS), RS4;11-BCL-2 F104L engineered cells; type: cell-based; details: Homo sapiens, 120 h, read-out: RS4, 11 BCL2-F104L IC50
Outline: (§1)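 Inhibition of mutant BCL-2 is inferred from reduced proliferation of RS4;11 cells stably overexpressing the mutant. Compounds are tested at 1.5–10000 nM for 120 h (G101V, F104L) or 72 h (D103E, D103Y), with MTS absorbance at 490 nm used to derive IC50.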

RS4;11-BCL-2 G101V cells = assay: Cell proliferation assay (MTS), RS4;11-BCL-2 G101V engineered cells; type: cell-based; details: Homo sapiens, 120 h, read-out: RS4, 11 BCL2-G101V IC50
Outline: as §1

RS4;11-BCL-2 D103E cells = assay: Cell proliferation assay (MTS), RS4;11-BCL-2 D103E engineered cells; type: cell-based; details: Homo sapiens, 72 h, read-out: RS4, 11 BCL2-D103E IC50
Outline: as §1

Toledo cells = assay: Cell proliferation assay (MTS), Toledo cells; type: cell-based; details: Homo sapiens, 72 h
Outline: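 Toledo cells (RPMI-1640, 10% FBS) seeded at 30000 cells/well, rested 4 h, then exposed 72 h at 37 °C, 5% CO2 to compound at nine final concentrations, 1.5–10000 nM. Viability by MTS (2 h), absorbance at 490 nm. IC50 from the concentration-response.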

RS4;11-BCL-2 D103Y cells = assay: Cell proliferation assay (MTS), RS4;11-BCL-2 D103Y engineered cells; type: cell-based; details: Homo sapiens, 72 h, read-out: RS4, 11 BCL2-D103Y IC50
Text: MTS testing kit was purchased from Promega (Madison, WI, USA). The RPMI-1640, Fetal bovine serum and Penicillin-Streptomycin were purchased from BI (Biological Industries, Beit Haemek, Israel). Puromycin was purchased from Beyotime (shanghai, China). Dimethyl sulfoxide (DMSO) was purchased from Sigma (St. Louis., MO, USA). RS4;11-BCL-2 G101V (Cobioer Lot. #: CBD2021063013P4), RS4;11-BCL-2 D103E (Cobioer Lot. #: CBD2021063013P4), RS4;11-BCL-2 D103Y (Cobioer Lot. #: CBD2022012101P4) and RS4;11-BCL-2 F104L (Cobioer Lot. #: CBD2021063014P4) cells were cultured in RPMI1640 supplemented with 1 ug/mL puromycin, 100 U/mL Penicillin-Streptomycin and 10% FBS.
To investigate whether a compound is able to inhibit the activity of BCL-2 mutation in cells, a mechanism-based assay using engineered cell lines stably overexpressing BCL-2 mutation (RS4;11-BCL-2 G101V, RS4;11-BCL-2 D103E, RS4;11-BCL-2 D103Y, and RS4;11-BCL-2 F104L) was developed. In this assay, the inhibition of BCL-2 mutation was reflected by the inhibition of cell proliferation of engineered RS4;11 cells. Cells were plated into 96-well plates at optimized cell density (RS4;11-BCL-2 G101V: 5000 cells/well; RS4;11-BCL-2 D103E: 7500 cells/well; RS4;11-BCL-2 D103Y: 7500 cells/well; RS4;11-BCL-2 F104L: 5000 cells/well). Plates were incubated at 37° C., with 5% CO2 for 4 h (RS4;11-BCL-2 G101V, RS4;11-BCL-2 F104L) and 24 h (RS4;11-BCL-2 D103E, RS4;11-BCL-2 D103Y), respectively. Compounds were serially diluted and added to the plates with the final concentrations of 10000, 3333.3, 1111.1, 370.4, 123.5, 41.2, 13.7, 4.6 and 1.5 nM. Plates were incubated at 37° C., with 5% CO2 for 120 h (RS4; 11-BCL-2 G101V, RS4; 11-BCL-2 F104L) and 72 h (RS4;11-BCL-2 D103E, RS4;11-BCL-2 D103Y), respectively. 20 μl MTS was added into each well and the plates were incubated at 37° C., with 5% CO2 exactly for 2 h. The absorbance was measured by a microplate reader at 490 nm. IC50 values were calculated using GraphPad Prism 8.0 software.

[1] = Pharmacokinetics assay in rats; type: in vivo; details: rat, male Sprague-Dawley rats, po, 5 mg/kg, plasma
Description: The purpose of this study was to determine the pharmacokinetics of Examples in male Sprague-Dawley rats (Supplied by Beijing Vital River Laboratory Animal Technology Co., Ltd.) following a single intravenous bolus injection at 1 mg/kg and oral gavage (PO) administration at 5 mg/kg.
Animals in Group 1 were administered with Examples by single intravenous bolus injection at 1 mg/kg, which was formulated in 10% DMSO (Sigma, Batch #LPCOS181): 60% PEG400 (Sigma, Batch #MKCH6281): 30% water, pH 5-6 at 1 mg/mL as a solution. Animals in Group 2 were administered with Examples by single oral gavage (PO) administration at 5 mg/kg, which was formulated in 10% DMSO (Sigma, Batch #BCCD6641): 60% PEG400 (Sigma, Batch #MKCL4921): 30% water at 1 mg/mL as a solution. Blood samples were collected at 0.083, 0.25, 0.5, 1, 2, 4, 8, 12 and 24 hours post-dose. Concentrations of Examples in plasma were determined by LC/MS/MS (LC: Waters UPLC; MS: Triple Quad 6500 plus).

## COc1cc(CN2CCN(C3CC4(CCN(c5ccc(C(=O)NS(=O)(=O)c6cnc(NC[C@H]7CC[C@](C)(O)CC7)c([N+](=O)[O-])c6)c(Oc6cnc7[nH]cc(F)c7c6)c5)CC4)C3)[C@H](c3ccccc3C(C)C)C2)cnc1C1CC1 [Example 255, 4-(2-((R)-4-((6-cyclopropyl-5-methoxypyridin-3-yl)methyl)-2-(2-isopropylphenyl)piperazin-1-yl)-7-azaspiro[3.5]nonan-7-yl)-2-((3-fluoro-1H-pyrrolo[2,3-b]pyridin-5-yl)oxy)-N-((6-((((1r,4r)-4-hydroxy-4-methylcyclohexyl)methyl)amino)-5-nitropyridin-3-yl)sulfonyl)benzamide]
RS4;11-BCL-2 F104L cells
  IC50: 3 nM
RS4;11-BCL-2 G101V cells
  IC50: 1 nM
RS4;11-BCL-2 D103E cells
  IC50: 3 nM
Toledo cells
  IC50: 1 nM
RS4;11-BCL-2 D103Y cells
  IC50: 1 nM

## COc1cc(CN2CCN(C3CC4(CCN(c5ccc(C(=O)NS(=O)(=O)c6cnc(NC[C@H]7CC[C@](C)(O)CC7)c([N+](=O)[O-])c6)c(Oc6cc7c(F)c[nH]c7nc6OC)c5)CC4)C3)[C@H](c3ccccc3C(C)C)C2)ncc1C1CC1 [Example 249, 4-(2-((R)-4-((5-cyclopropyl-4-methoxypyridin-2-yl)methyl)-2-(2-isopropylphenyl)piperazin-1-yl)-7-azaspiro[3.5]nonan-7-yl)-2-((3-fluoro-6-methoxy-1H-pyrrolo[2,3-b]pyridin-5-yl)oxy)-N-((6-((((1r,4r)-4-hydroxy-4-methylcyclohexyl)methyl)amino)-5-nitropyridin-3-yl)sulfonyl)benzamide]
RS4;11-BCL-2 G101V cells
  IC50: 1 nM
RS4;11-BCL-2 D103E cells
  IC50: 1 nM
RS4;11-BCL-2 D103Y cells
  IC50: 5 nM

## COc1ccc(CN2CCN(C3CC4(CCN(c5ccc(C(=O)NS(=O)(=O)c6cnc(NC[C@H]7CC[C@](C)(O)CC7)c([N+](=O)[O-])c6)c(Oc6cc7c(F)c[nH]c7nc6OC)c5)CC4)C3)[C@H](c3ccccc3C(C)C)C2)cn1 [Example 119, 2-((3-fluoro-6-methoxy-1H-pyrrolo[2,3-b]pyridin-5-yl)oxy)-N-((6-((((1r,4r)-4-hydroxy-4-methylcyclohexyl)methyl)amino)-5-nitropyridin-3-yl)sulfonyl)-4-(2-((R)-2-(2-isopropylphenyl)-4-((6-methoxypyridin-3-yl)methyl)piperazin-1-yl)-7-azaspiro[3.5]nonan-7-yl)benzamide]
RS4;11-BCL-2 F104L cells
  IC50: 3 nM
RS4;11-BCL-2 G101V cells
  IC50: 1 nM
RS4;11-BCL-2 D103E cells
  IC50: 1 nM
Toledo cells
  IC50: 1 nM
RS4;11-BCL-2 D103Y cells
  IC50: 10 nM

## COc1ccc(CN2CCN(C3CC4(CCN(c5ccc(C(=O)NS(=O)(=O)c6cnc(NC[C@H]7CC[C@](C)(O)CC7)c([N+](=O)[O-])c6)c(Oc6cc7c(F)c[nH]c7nc6OC)c5)CC4)C3)[C@H](c3ccccc3C(C)C)C2)cc1OC [Example 7, 4-(2-((R)-4-(3,4-dimethoxybenzyl)-2-(2-isopropylphenyl)piperazin-1-yl)-7-azaspiro[3.5]nonan-7-yl)-2-((3-fluoro-6-methoxy-1H-pyrrolo[2,3-b]pyridin-5-yl)oxy)-N-((6-((((1r,4r)-4-hydroxy-4-methylcyclohexyl)methyl)amino)-5-nitropyridin-3-yl)sulfonyl)benzamide]
RS4;11-BCL-2 F104L cells
  IC50: 1 nM
RS4;11-BCL-2 G101V cells
  IC50: 1 nM
RS4;11-BCL-2 D103E cells
  IC50: 2 nM
Toledo cells
  IC50: 1 nM
RS4;11-BCL-2 D103Y cells
  IC50: 9 nM

## COc1nc2[nH]cc(F)c2cc1Oc1cc(N2CCC3(CC2)CC(N2CCN(Cc4ccc(OC(F)F)cc4)C[C@H]2c2ccccc2C(C)C)C3)ccc1C(=O)NS(=O)(=O)c1cnc(NC[C@H]2CC[C@](C)(O)CC2)c([N+](=O)[O-])c1 [Example 344, 4-(2-((R)-4-(4-(difluoromethoxy)benzyl)-2-(2-isopropylphenyl)piperazin-1-yl)-7-azaspiro[3.5]nonan-7-yl)-2-((3-fluoro-6-methoxy-1H-pyrrolo[2,3-b]pyridin-5-yl)oxy)-N-((6-((((1r,4r)-4-hydroxy-4-methylcyclohexyl)methyl)amino)-5-nitropyridin-3-yl)sulfonyl)benzamide]
[1]
  AUC(0-t): 5910 ng·h/mL
  half-life: 1730 min
[1]; read-out: Cmax/C0
  Cmax: 406 ng/mL
RS4;11-BCL-2 F104L cells
  IC50: 1 nM
RS4;11-BCL-2 G101V cells
  IC50: 1 nM
RS4;11-BCL-2 D103E cells
  IC50: 1 nM
Toledo cells
  IC50: 1 nM
RS4;11-BCL-2 D103Y cells
  IC50: 10 nM

## COc1nc2[nH]cc(F)c2cc1Oc1cc(N2CCC3(CC2)CC(N2CCN(Cc4ccncc4)C[C@H]2c2ccccc2C(C)C)C3)ccc1C(=O)NS(=O)(=O)c1cnc(NC[C@H]2CC[C@](C)(O)CC2)c([N+](=O)[O-])c1 [Example 239, 2-((3-fluoro-6-methoxy-1H-pyrrolo[2,3-b]pyridin-5-yl)oxy)-N-((6-((((1r,4r)-4-hydroxy-4-methylcyclohexyl)methyl)amino)-5-nitropyridin-3-yl)sulfonyl)-4-(2-((R)-2-(2-isopropylphenyl)-4-(pyridin-4-ylmethyl)piperazin-1-yl)-7-azaspiro[3.5]nonan-7-yl)benzamide]
RS4;11-BCL-2 F104L cells
  IC50: 1 nM
RS4;11-BCL-2 G101V cells
  IC50: 1 nM
Toledo cells
  IC50: 1 nM
RS4;11-BCL-2 D103Y cells
  IC50: 8 nM

## COc1cc(CN2CCN(C3CC4(CCN(c5ccc(C(=O)NS(=O)(=O)c6cnc(NC[C@H]7CC[C@](C)(O)CC7)c([N+](=O)[O-])c6)c(Oc6cc7c(F)c[nH]c7nc6OC)c5)CC4)C3)[C@H](c3ccccc3C(C)C)C2)cnc1C1CC1 [Example 254, 4-(2-((R)-4-((6-cyclopropyl-5-methoxypyridin-3-yl)methyl)-2-(2-isopropylphenyl)piperazin-1-yl)-7-azaspiro[3.5]nonan-7-yl)-2-((3-fluoro-6-methoxy-1H-pyrrolo[2,3-b]pyridin-5-yl)oxy)-N-((6-((((1r,4r)-4-hydroxy-4-methylcyclohexyl)methyl)amino)-5-nitropyridin-3-yl)sulfonyl)benzamide]
RS4;11-BCL-2 F104L cells
  IC50: 3 nM
RS4;11-BCL-2 G101V cells
  IC50: 1 nM
Toledo cells
  IC50: 1 nM
RS4;11-BCL-2 D103Y cells
  IC50: 3 nM

## COc1ccc(CN2CCN(C3CC4(CCN(c5ccc(C(=O)NS(=O)(=O)c6cnc(NC[C@H]7CC[C@](C)(O)CC7)c([N+](=O)[O-])c6)c(Oc6cnc7[nH]cc(F)c7c6)c5)CC4)C3)[C@H](c3ccccc3C(C)C)C2)cc1OC [Example 74, 4-(2-((R)-4-(3,4-dimethoxybenzyl)-2-(2-isopropylphenyl)piperazin-1-yl)-7-azaspiro[3.5]nonan-7-yl)-2-((3-fluoro-1H-pyrrolo[2,3-b]pyridin-5-yl)oxy)-N-((6-((((1r,4r)-4-hydroxy-4-methylcyclohexyl)methyl)amino)-5-nitropyridin-3-yl)sulfonyl)benzamide]
RS4;11-BCL-2 G101V cells
  IC50: 1 nM
RS4;11-BCL-2 D103E cells
  IC50: 1 nM
Toledo cells
  IC50: 1 nM
RS4;11-BCL-2 D103Y cells
  IC50: 5 nM
